{"source": "patent US10076519B2", "about": "(CYTOKINETICS, INC., priority 2010, dated 2018)", "data": [{"system": "rabbit skeletal myofibrils (fast skeletal myofibrils)", "experiment": "Activation of fast skeletal myofibrils (PUMA assay, PK/LDH-coupled ATPase at pCa25)", "format": "biochemical", "details": "median AC1.4 class, procedure of Example 39", "summary_of_the_method": "(§1)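 ATPase activity of Triton-washed rabbit skeletal myofibrils, roughly 90% fast fibres, tracked by NADH loss at 340 nm through a PK/LDH-coupled ADP-regenerating system. Calcium set to 25% of maximal activity (pCa25), in PIPES 12 mM pH 6.8 with 2 mM MgCl2 and 1 mM DTT; AC1.4 reported.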", "values": [{"smiles": "CS(=O)(=O)Nc1nccc(-c2ccc(NCC3(c4ncccc4F)CCC3)nn2)n1", "note": "[{4-[6-({[(3-fluoro(2-pyridyl))cyclobutyl]methyl}ami-no)pyridazin-3-yl]pyrimidin-2-yl}(methylsulfonyl)amine]", "Mean AC1.4": "D (D=>20 uM)"}, {"smiles": "CC(C)NC(=O)c1ccc(F)c(-c2ccc(NC[C@]3(c4ncccc4F)C[C@H](F)C3)nn2)c1", "note": "[{4-fluoro-3-[6-({[3-fluoro-1-(3-fluoro(2-pyridyl))cyclobutyl]methyl}ami-no)pyridazin-3-yl]phenyl}-N-(methylethyl)carboxamide]", "Mean AC1.4": "A (A=<1 uM)"}, {"smiles": "CNC(=O)c1ccc(F)c(-c2ccc(NC[C@]3(c4ncccc4F)C[C@H](F)C3)nn2)c1", "note": "[{4-fluoro-3-[6-({[3-fluoro-1-(3-fluoro(2-pyridyl))cyclobutyl]methyl}ami-no)pyridazin-3-yl]phenyl}-N-methylcarboxamide]", "Mean AC1.4": "A (A=<1 uM)"}, {"smiles": "CS(=O)(=O)Nc1n[nH]c2ccc(-c3ccc(NC[C@]4(c5ncccc5F)C[C@H](F)C4)nn3)cc12", "note": "[{5-[6-({[3-fluoro-1-(3-fluoro(2-pyridyl))cyclobutyl]methyl}ami-no)pyridazin-3-yl](1H-indazol-3-yl)}(methylsulfonyl)amine]", "Mean AC1.4": "A (A=<1 uM)"}]}, {"system": "rabbit skeletal myofibrils (fast skeletal myofibrils)", "experiment": "Activation of fast skeletal myofibrils (PUMA assay, PK/LDH-coupled ATPase at pCa25)", "format": "biochemical", "details": "median AC1.4 reported as class; procedure of Example 39", "summary_of_the_method": "as §1", "values": [{"smiles": "CNC(=O)c1ccc(O)c(-c2ccc(NC[C@]3(c4ncccc4F)C[C@H](F)C3)nn2)c1", "note": "[{3-[6-({[3-fluoro-1-(3-fluoro(2-pyridyl))cyclobutyl]methyl}ami-no)pyridazin-3-yl]-4-hydroxyphenyl}-N-methylcarboxamide]", "Mean AC1.4": "B (B=1-10 uM)"}, {"smiles": "CNC(=O)c1cc(C)cc(-c2ccc(NC[C@]3(c4ncccc4F)C[C@H](F)C3)nn2)c1", "note": "[{3-[6-({[3-fluoro-1-(3-fluoro(2-pyridyl))cyclobutyl]methyl}ami-no)pyridazin-3-yl]-5-methylphenyl}-N-methylcarboxamide]", "Mean AC1.4": "B (B=1-10 uM)"}, {"smiles": "CN1CC(NC(=O)c2cccc(-c3ccc(NC[C@]4(c5ncccc5F)C[C@H](F)C4)nn3)c2)C1", "note": "[{3-[6-({[3-fluoro-1-(3-fluoro(2-pyridyl))cyclobutyl]methyl}ami-no)pyridazin-3-yl]phenyl}-N-(1-methylazetidin-3-yl)carboxamide]", "Mean AC1.4": "B (B=1-10 uM)"}, {"smiles": "CC(C)(O)CNC(=O)c1cccc(-c2ccc(NC[C@]3(c4ncccc4F)C[C@H](F)C3)nn2)c1", "note": "[{3-[6-({[3-fluoro-1-(3-fluoro(2-pyridyl))cyclobutyl]methyl}ami-no)pyridazin-3-yl]phenyl}-N-(2-hydroxy-2-methylpropyl)carboxamide]", "Mean AC1.4": "B (B=1-10 uM)"}, {"smiles": "CC1(O)CC(NC(=O)c2cccc(-c3ccc(NC[C@]4(c5ncccc5F)C[C@H](F)C4)nn3)c2)C1", "note": "(some centres unmarked) [{3-[6-({[3-fluoro-1-(3-fluoro(2-pyridyl))cyclobutyl]methyl}ami-no)pyridazin-3-yl]phenyl}-N-(3-hydroxy-3-methylcyclobutyl)carboxamide]", "Mean AC1.4": "B (B=1-10 uM)"}, {"smiles": "O=C(NC1CC(O)C1)c1cccc(-c2ccc(NC[C@]3(c4ncccc4F)C[C@H](F)C3)nn2)c1", "note": "(some centres unmarked) [{3-[6-({[3-fluoro-1-(3-fluoro(2-pyridyl))cyclobutyl]methyl}ami-no)pyridazin-3-yl]phenyl}-N-(3-hydroxycyclobutyl)carboxamide]", "Mean AC1.4": "B (B=1-10 uM)"}, {"smiles": "CS(=O)(=O)N1CC(NC(=O)c2cccc(-c3ccc(NC[C@]4(c5ncccc5F)C[C@H](F)C4)nn3)c2)C1", "note": "[{3-[6-({[3-fluoro-1-(3-fluoro(2-pyridyl))cyclobutyl]methyl}ami-no)pyridazin-3-yl]phenyl}-N-[1-(methylsulfonyl)azetidin-3-yl]carboxamide]", "Mean AC1.4": "B (B=1-10 uM)"}, {"smiles": "O=C(NC(CO)CO)c1cccc(-c2ccc(NC[C@]3(c4ncccc4F)C[C@H](F)C3)nn2)c1", "note": "[{3-[6-({[3-fluoro-1-(3-fluoro(2-pyridyl))cyclobutyl]methyl}ami-no)pyridazin-3-yl]phenyl}-N-[2-hydroxy-1-(hydroxymethyl)ethyl]carboxamide]", "Mean AC1.4": "B (B=1-10 uM)"}, {"smiles": "O=C(NCC1(O)CC1)c1cccc(-c2ccc(NC[C@]3(c4ncccc4F)C[C@H](F)C3)nn2)c1", "note": "[{3-[6-({[3-fluoro-1-(3-fluoro(2-pyridyl))cyclobutyl]methyl}ami-no)pyridazin-3-yl]phenyl}-N-[(hydroxycyclopropyl)methyl]car-boxamide]", "Mean AC1.4": "A (A=<1 uM)"}, {"smiles": "CNC(=O)c1cccc(-c2ccc(NC[C@]3(c4ncccc4F)C[C@H](F)C3)nn2)c1", "note": "[{3-[6-({[3-fluoro-1-(3-fluoro(2-pyridyl))cyclobutyl]methyl}ami-no)pyridazin-3-yl]phenyl}-N-methylcarboxamide]", "Mean AC1.4": "A (A=<1 uM)"}, {"smiles": "O=C(NC1COC1)c1cccc(-c2ccc(NC[C@]3(c4ncccc4F)C[C@H](F)C3)nn2)c1", "note": "[{3-[6-({[3-fluoro-1-(3-fluoro(2-pyridyl))cyclobutyl]methyl}ami-no)pyridazin-3-yl]phenyl}-N-oxetan-3-ylcarboxamide]", "Mean AC1.4": "B (B=1-10 uM)"}, {"smiles": "OCc1cccc(-c2ccc(NC[C@]3(c4ncccc4F)C[C@H](F)C3)nn2)c1", "note": "[{3-[6-({[3-fluoro-1-(3-fluoro(2-pyridyl))cyclobutyl]methyl}ami-no)pyridazin-3-yl]phenyl}methan-1-ol]", "Mean AC1.4": "B (B=1-10 uM)"}, {"smiles": "CNC(=O)c1cccc(-c2ccc(NCC3(c4ncccc4F)CCC3)nn2)c1", "note": "[{3-[6-({[(3-fluoro(2-pyridyl))cyclobutyl]methyl}ami-no)pyridazin-3-yl]phenyl}-N-methylcarboxamide]", "Mean AC1.4": "B (B=1-10 uM)"}, {"smiles": "CNC(=O)c1ccc(O)c(-c2ccc(NCC3(c4ncccc4F)CCC3)nn2)c1", "note": "[{3-[6-({[(3-fluoro(2-pyridyl))cyclobutyl]methyl}amino)pyr-idazin-3-yl]-4-hydroxyphenyl}-N-methylcarboxamide]", "Mean AC1.4": "B (B=1-10 uM)"}, {"smiles": "CN(C)C(=O)c1ccc(F)c(-c2ccc(NC[C@]3(c4ncccc4F)C[C@H](F)C3)nn2)c1", "note": "[{4-fluoro-3-[6-({[3-fluoro-1-(3-fluoro(2-pyridyl))cyclobutyl]methyl}ami-no)pyridazin-3-yl]phenyl}-N,N-dimethylcarboxamide]", "Mean AC1.4": "B (B=1-10 uM)"}, {"smiles": "CN1CC(NC(=O)c2ccc(F)c(-c3ccc(NC[C@]4(c5ncccc5F)C[C@H](F)C4)nn3)c2)C1", "note": "[{4-fluoro-3-[6-({[3-fluoro-1-(3-fluoro(2-pyridyl))cyclobutyl]methyl}ami-no)pyridazin-3-yl]phenyl}-N-(1-methylazetidin-3-yl)carboxamide]", "Mean AC1.4": "B (B=1-10 uM)"}, {"smiles": "O=C(NCC(F)(F)F)c1ccc(F)c(-c2ccc(NC[C@]3(c4ncccc4F)C[C@H](F)C3)nn2)c1", "note": "[{4-fluoro-3-[6-({[3-fluoro-1-(3-fluoro(2-pyridyl))cyclobutyl]methyl}ami-no)pyridazin-3-yl]phenyl}-N-(2,2,2-trifluoroethyl)carboxamide]", "Mean AC1.4": "B (B=1-10 uM)"}, {"smiles": "CNC(=O)c1ccc(F)c(-c2ccc(NCC3(c4ncccc4F)CCC3)nn2)c1", "note": "[{4-fluoro-3-[6-({[(3-fluoro(2-pyridyl))cyclobutyl]methyl}ami-no)pyridazin-3-yl]phenyl}-N-methylcarboxamide]", "Mean AC1.4": "A (A=<1 uM)"}, {"smiles": "CNC(=O)c1cc(-c2ccc(NC[C@]3(c4ncccc4F)C[C@H](F)C3)nn2)c(F)cc1O", "note": "[{4-fluoro-5-[6-({[3-fluoro-1-(3-fluoro(2-pyridyl))cyclobutyl]methyl}ami-no)pyridazin-3-yl]-2-hydroxyphenyl}-N-methylcarboxamide]", "Mean AC1.4": "A (A=<1 uM)"}]}]}
